Test results: EP4628081A1, “COMPOSITION FOR REMOVING HELICOBACTER PYLORI COMPRISING ZASTAPRAZAN OR PHARMACEUTICALLY ACCEPTABLE SALT THEREOF” (priority 2022, dated 2024)
≈ marks a conversion by molar mass, not a printed value. Like-named read-outs stand apart in the source and are kept apart here.

Assays:
[1] = Solubility observed during MIC analysis; type: physicochemical; settings: in MIC medium; formation of suspension, interference in visual/absorbance analysis
Excerpt: Referring to Table 4 below, since the solubility of zastaprazan (JP-1366) was low, the MIC analysis was difficult (poor solubility, formation of suspension, interference in visual/absorbance analysis), so the inhibitory effect on the H. pylori strains was confirmed through the MBC index.

[2] = test system: patients with erosive gastroesophageal reflux disease; experiment: Phase 2 clinical trial, healing of mucosal breaks and symptom assessment; type: in vivo, human; settings: within 24 hours and for seven days after administration; subject diary
Description: H. pylori testing was performed by 13C-urea breath test (13C-UBT), gastroscopy (Campylobacter-like organism test, CLO), or tissue biopsy to confirm H. pylori positivity/negativity. […] This clinical trial was a randomized, double-blind, active-controlled, multicenter, phase 2 clinical trial targeting patients with erosive gastroesophageal reflux disease. After the subjects gave written consent to participate in the clinical trial, a screening test was conducted. […] At this time, the subjects were stratified by grade (A, B, C, D) according to the LA classification system classified by upper gastrointestinal endoscopy. Randomly assigned subjects took the clinical trial drug once a day according to the assigned administration group for four weeks. After four weeks of administration of the clinical trial drug, the subjects visited the clinical trial institution to undergo an upper gastrointestinal endoscopy to assess whether they were healed. Healed subjects underwent a Safety Follow-Up (F/U) two weeks later, and unhealed subjects were administered the clinical trial drug for additional four weeks (a total of 8 weeks of administration) and visited the clinical trial institution to undergo an upper gastrointestinal endoscopy. […]

[3] = test system: Helicobacter pylori (ATCC43504); experiment: MIC and MBC by microdilution method according to CLSI guideline; type: cell-based; settings: ATCC43504, 72 h
Description: Helicobacter pylori (ATCC43504): Type strain for antibiotic susceptibility testing according to the Clinical & Laboratory Standards Institute (CLSI) guidelines.
(§1) The medium was prepared using Müller-Hinton broth (MH, Difco Inc., Sparks, MD, USA) [w/7% […] (Sigma CO., LTD., St. Louis, USA), 0.4% isovitalex (BBL Inc., Sparks, MD, USA)].
(§2) An antibiotic susceptibility testing was performed using the microdilution method according to the CLSI guideline. Two-fold serial dilution was performed in 12 steps in a 48-well plate with the highest concentration of 128 µg/mL for amocixillin and clarithromycin and 256 µg/mL for omeprazole. The bacteria were inoculated into wells containing only medium without antibiotics to prepare the positive control group, and the wells containing only medium without antibiotics or inoculated bacteria were used as the negative control group. The concentration range of the test substances, zastaprazan (JP-1366) and fexuprazan, was determined through preliminary experiments. H. pylori stored in a deep freezer (-70 °C or lower) was thawed, inoculated onto BHI agar (w/7% laked horse blood and 0.4% isovitalex), cultured at 37 °C under microaerobic conditions of 5% O2, 10% CO2, and 85% N2 gas for three days, and then subcultured onto a fresh medium. The cultured bacteria were harvested, suspended in PBS, inoculated into each well at a concentration of 5 x 10^5 CFU/mL, and then cultured at 37 °C under microaerobic conditions of 5% O2, 10% CO2, and 85% N2 gas for three days. The lowest concentration at which no bacterial growth was observed was determined as the MIC. Thereafter, 10 µL of the culture solution from each well at different concentrations was spotted onto BHI agar (w/7% laked horse blood and 0.4% isovitalex) containing no antibiotics and cultured for three days at 37 °C under microaerobic conditions. The lowest concentration at which no bacteria growth occurred was determined as the MBC.
To determine the MBC, 10 µl of the culture solution from each well was spotted on a solid medium containing no antibiotics or test substances after the MIC determination, and bacterial growth was examined.
(§3) All tests were performed in duplicate, and the results were determined by conducting the experiments in triplicate.

[4] = test system: Helicobacter pylori 26695 (ATCC700329); experiment: as above; type: cell-based; settings: ATCC700329, 72 h
Description: Helicobacter pylori 26695 (ATCC700329): A strain isolated from a patient known to be associated with the development of gastric cancer. The strain is cytotoxin associated gene (CagA)-positive and vacuolating cytotoxin (VacA)-positive and has a well-known genetic background, so it is mainly used for research purposes.
as §1
An antibiotic susceptibility testing was performed using the microdilution method according to the CLSI guideline. […] The concentration range of the test substances, zastaprazan (JP-1366) and fexuprazan, was determined through preliminary experiments. […] The lowest concentration at which no bacterial growth was observed was determined as the MIC. […] The lowest concentration at which no bacteria growth occurred was determined as the MBC.
To determine the MIC, visual inspection was performed and the absorbance was measured at 600 nm, and the growth was confirmed based on the absorbance of the negative control group containing only the medium. […]
as §3

[5] = test system: Helicobacter pylori SS1 (mouse colonizing strain); experiment: as above; type: cell-based; settings: 72 h, 3 days; for MBC: spotted on antibiotic-free BHI agar, unit from method b141/b236, table prints none
Description: Helicobacter pylori SS1 (mouse colonizing strain): A strain known as Sydney strain. The strain is CagA-positive and VacA-positive and has been confirmed to infect and colonize in C57BL/6 mice. The strain is used in animal testing.
as §1
as §2, with “Thereafter, 10 µL of the culture solution from each well at different concentrations was spotted onto BHI agar (w/7% laked horse blood and 0.4% isovitalex) containing no antibiotics and cultured for three days at 37 °C under microaerobic conditions.” left out, “MBC. […]” for “MBC.”
as §3

[6] = test system: Helicobacter pylori SS1 (mouse colonizing strain); experiment: Clarithromycin MIC and MBC by microdilution with or without JP-1366 in the medium; type: cell-based; settings: medium containing zastaprazan (JP1366) at 1/2 MIC concentration vs MH medium
Description: Helicobacter pylori SS1 (mouse colonizing strain): Known as Sydney strain, the strain is CagA-positive and VacA-positive, and has been confirmed to colonize mice C57BL/6 and is used in animal experiments.
Zastaprazan (JP-1366) was supplied as a product prepared at a concentration of 10 mM in dimethyl sulfoxide (DMSO) solvent, and clarithromycin was prepared at a concentration of 5 mg/mL in DMSO solvent.
An antibiotic susceptibility test was performed by the microdilution method according to CLSI guideline.
The antibiotic susceptibility test was performed using MH broth (7% horse serum, 0.4% IsoVitalex), and the susceptibility test medium for zastaprazan (JP-1366) was prepared at this time. […] Using the medium prepared in this way, clarithromycin was serially diluted 2-fold and in 16 steps, with a maximum concentration of 16 µg/mL. Wells containing only the medium without antibiotics were used as a negative control group, and wells inoculated only with the bacteria in the medium without antibiotics were used as a positive control group. […] The lowest concentration of the sample at which no bacterial growth was observed was determined as the MIC. […] The lowest concentration at which no bacterial growth was observed was determined as the minimum bactericidal concentration(MBC). […]

Cc1cccc(C)c1CNc1cc(C(=O)N2CCC2)cn2c(C)c(C)nc12.O=C(O)CC(O)(CC(=O)O)C(=O)O [JP-1366, azetidin-1-yl{8-[(2,6-dimethylbenzyl)amino]-2,3-dimethylimidazo[1,2-a]pyridin-6-yl}methanone citrate salt]
solubility [1]: low
evaluation of all symptoms (heartburn, acid reflux, heartburn/acid reflux) [2]: all symptoms tended to be ameliorated

COc1ccc2[nH]c([S+]([O-])Cc3ncc(C)c(OC)c3C)nc2c1 (stereo not shown) [Omeprazole]
MBC [3]: 64 µg/mL (≈ 185 µM)
MIC [3]: 32 µg/mL (≈ 92.6 µM)

CC1(C)S[C@@H]2[C@H](NC(=O)[C@H](N)c3ccc(O)cc3)C(=O)N2[C@H]1C(=O)O [Amoxicillin, Amoxicillin Trihydrate]
MBC ([3]; strain 43504, spotted on antibiotic-free BHI agar, 3 days, unit from method b141/b236, table prints none, read-out: MBC): 0.032 µg/mL
MBC ([4]; strain 26695, spotted on antibiotic-free BHI agar, 3 days, unit from method b141/b236, table prints none, read-out: MBC): 0.032 µg/mL
MBC [5]: 0.25 µg/mL

CC[C@H]1OC(=O)[C@H](C)[C@@H](O[C@H]2C[C@@](C)(OC)[C@@H](O)[C@H](C)O2)[C@H](C)[C@@H](O[C@@H]2O[C@H](C)C[C@H](N(C)C)[C@H]2O)[C@](C)(OC)C[C@@H](C)C(=O)[C@H](C)[C@@H](O)[C@]1(C)O [Clarithromycin]
MBC [3]: 0.063 µg/mL (≈ 0.0842 µM)
MIC [3]: 0.032 µg/mL (≈ 0.0428 µM)
MBC [4]: 0.125 µg/mL (≈ 0.167 µM)
MBC lowered by [6]: about 1/2
MIC ([5]; 37 °C, microaerobic, unit from method b141, table prints none): 0.032 µg/mL (≈ 0.0428 µM)
MBC [5]: 0.125 µg/mL (≈ 0.167 µM)
